Reference: PMC10742472, “Synthesis and Characterisation of Platinum(II) Diaminocyclohexane Complexes with Pyridine Derivatives as Anticancer Agents” (International Journal of Molecular Sciences, 2023)

tested on: H460 (Lung); assay: MTT cytotoxicity assay, H460; type: cell-based; settings: 72 h exposure

Row | Substance | GI50 [µM]
1 | [Pt(2-(1H-Imidazol-2-yl)pyridine)(1R,2R-(+)-diaminocyclohexane)]^2+ [Complex 5b] | 0.37 ± 0.05
2 | [Pt(2-(2-pyridyl)benzimidazole)(1R,2R-(+)-diaminocyclohexane)]^2+ [Complex 6b] | 16 ± 1.2
3 | [Pt(2-pyrrolidin-2-yl pyridine)(1R,2R-(+)-diaminocyclohexane)]^2+ [Complex 4b] | 31 ± 0.88

tested on: not given; assay: not given; type: physicochemical; settings: not given
Procedure: Lipophilicity was calculated using RP-HPLC. A stock solution of each PC was injected at different isocratic ratios ranging from 70–90% solvent B (organic) at a flow rate of 1 mL·min^−1 [32, 33, 34]. The complexes have low solubility in water, often requiring DMSO to make concentrated solutions. Yet the LogK’ calculated using these experimental data indicated high lipophilicity, which is typical for 2+ charged complexes. […] When heat was applied, they would not precipitate out of the solution after cooling. This confirmed that a lack of persistence was the cause of the “observed” low solubility in H2O. […] Their increased lipophilicity may indicate they have the potential to be administered orally, a characteristic usually associated with Pt(IV) complexes. Other factors, such as stability and cellular absorption, would need to be considered before the potential of these Pt(II) anticancer agents could be evaluated.
Lipophilicity was evaluated using RP-HPLC, whereby LogKw is calculated by injecting a stock solution of the PC at different isocratic ratios ranging from 70–90% solvent B (organic) at a flow rate of 1 mL·min^−1. An Agilent Technologies 1260 Infinity machine equipped with a Phenomenex Onyx™ Monolithic C18 reverse phase column (100 × 4.6 mm, 130 Å) was used to determine purity. The mobile phase comprised 0.06% TFA in water (solvent A) and 0.06% TFA in 90:10 ACN:H2O mixture (solvent B). The PC peak was eluted outside the dead zero volume time to avoid inaccurate results. The dead zero volume time was determined using potassium iodide as an external dead volume marker, with further details in the Supplementary Materials. The subsequent peaks were recorded, and K was calculated using Equation (6). (6) K=tr−t0/t0 where K is the capacity factor, tr is the retention time of the analyte, and t0 is the dead time determined using a solution of KI in the same column. At least five different isocratic ratios were used to assess each PC, and each experiment was repeated three times. LogK’ was then calculated and plotted against the concentration of ACN in the mobile phase. […] (7) LogK^′=Sφ+LogKw where S is the slope, φ is the concentration of ACN in the mobile phase, and LogKw represents the capacity factor of the compound in 100% water (Figure S49).

Row | Substance | Lipophilicity
4 | [Pt(2-(2-pyridyl)benzimidazole)(1R,2R-(+)-diaminocyclohexane)]^2+ [Complex 6b] | 2.46 ± 0.025

tested on: U87 (Glioblastoma); assay: MTT cytotoxicity assay, U87; type: cell-based; settings: 72 h exposure

Row | Substance | GI50 [µM]
5 | [Pt(2-(1H-Imidazol-2-yl)pyridine)(1R,2R-(+)-diaminocyclohexane)]^2+ [Complex 5b] | 0.05 ± 0.01
6 | [Pt(2-(2-pyridyl)benzimidazole)(1R,2R-(+)-diaminocyclohexane)]^2+ [Complex 6b] | 7.6 ± 0.46
7 | [Pt(2-pyrrolidin-2-yl pyridine)(1R,2R-(+)-diaminocyclohexane)]^2+ [Complex 4b] | 43 ± 0.67

tested on: A431 (Skin); assay: MTT cytotoxicity assay, A431; type: cell-based; settings: 72 h exposure

Row | Substance | GI50 [µM]
8 | [Pt(2-(1H-Imidazol-2-yl)pyridine)(1R,2R-(+)-diaminocyclohexane)]^2+ [Complex 5b] | 0.49 ± 0.07
9 | [Pt(2-(2-pyridyl)benzimidazole)(1R,2R-(+)-diaminocyclohexane)]^2+ [Complex 6b] | 24 ± 2.6
10 | [Pt(2-pyrrolidin-2-yl pyridine)(1R,2R-(+)-diaminocyclohexane)]^2+ [Complex 4b] | 30 ± 4.7

tested on: MCF-7 (Breast); assay: MTT cytotoxicity assay, MCF-7; type: cell-based; settings: 72 h exposure

Row | Substance | GI50 [µM]
11 | [Pt(2-(1H-Imidazol-2-yl)pyridine)(1R,2R-(+)-diaminocyclohexane)]^2+ [Complex 5b] | 0.3 ± 0.07
12 | [Pt(2-(2-pyridyl)benzimidazole)(1R,2R-(+)-diaminocyclohexane)]^2+ [Complex 6b] | 8 ± 1.6
13 | [Pt(2-pyrrolidin-2-yl pyridine)(1R,2R-(+)-diaminocyclohexane)]^2+ [Complex 4b] | 12.5 ± 0.76

tested on: MIA (Pancreas); assay: MTT cytotoxicity assay, MIA; type: cell-based; settings: 72 h exposure

Row | Substance | GI50 [µM]
14 | [Pt(2-(1H-Imidazol-2-yl)pyridine)(1R,2R-(+)-diaminocyclohexane)]^2+ [Complex 5b] | 0.56 ± 0.11
15 | [Pt(2-(2-pyridyl)benzimidazole)(1R,2R-(+)-diaminocyclohexane)]^2+ [Complex 6b] | 30 ± 6.9
16 | [Pt(2-pyrrolidin-2-yl pyridine)(1R,2R-(+)-diaminocyclohexane)]^2+ [Complex 4b] | 43 ± 1

tested on: Du145 (Prostate); assay: MTT cytotoxicity assay, Du145; type: cell-based; settings: 72 h exposure

Row | Substance | GI50 [µM]
17 | [Pt(2-(1H-Imidazol-2-yl)pyridine)(1R,2R-(+)-diaminocyclohexane)]^2+ [Complex 5b] | 0.44 ± 0.07
18 | [Pt(2-(2-pyridyl)benzimidazole)(1R,2R-(+)-diaminocyclohexane)]^2+ [Complex 6b] | 22 ± 1.5
19 | [Pt(2-pyrrolidin-2-yl pyridine)(1R,2R-(+)-diaminocyclohexane)]^2+ [Complex 4b] | > 50

tested on: MCF10A (Breast, Normal); assay: MTT cytotoxicity assay, MCF10A non-cancer breast cells; type: cell-based; settings: 72 h exposure

Row | Substance | GI50 [µM]
20 | [Pt(2-(1H-Imidazol-2-yl)pyridine)(1R,2R-(+)-diaminocyclohexane)]^2+ [Complex 5b] | 0.22 ± 0.03
21 | [Pt(2-(2-pyridyl)benzimidazole)(1R,2R-(+)-diaminocyclohexane)]^2+ [Complex 6b] | 17 ± 1.5
22 | [Pt(2-pyrrolidin-2-yl pyridine)(1R,2R-(+)-diaminocyclohexane)]^2+ [Complex 4b] | 45

tested on: HT29 (Colon); assay: MTT cytotoxicity assay, HT29; type: cell-based; settings: 72 h exposure

Row | Substance | GI50 [µM]
23 | [Pt(2-(1H-Imidazol-2-yl)pyridine)(1R,2R-(+)-diaminocyclohexane)]^2+ [Complex 5b] | 0.75 ± 0.07
24 | [Pt(2-(2-pyridyl)benzimidazole)(1R,2R-(+)-diaminocyclohexane)]^2+ [Complex 6b] | 33 ± 1.2
25 | [Pt(2-pyrrolidin-2-yl pyridine)(1R,2R-(+)-diaminocyclohexane)]^2+ [Complex 4b] | > 50

tested on: SJ-G2 (Glioblastoma); assay: MTT cytotoxicity assay, SJ-G2; type: cell-based; settings: 72 h exposure

Row | Substance | GI50 [µM]
26 | [Pt(2-(1H-Imidazol-2-yl)pyridine)(1R,2R-(+)-diaminocyclohexane)]^2+ [Complex 5b] | 4.5 ± 0.6
27 | [Pt(2-(2-pyridyl)benzimidazole)(1R,2R-(+)-diaminocyclohexane)]^2+ [Complex 6b] | 38 ± 5.9
28 | [Pt(2-pyrrolidin-2-yl pyridine)(1R,2R-(+)-diaminocyclohexane)]^2+ [Complex 4b] | > 50

tested on: BE2-C (Neuroblastoma); assay: MTT cytotoxicity assay, BE2-C; type: cell-based; settings: 72 h exposure

Row | Substance | GI50 [µM]
29 | [Pt(2-(1H-Imidazol-2-yl)pyridine)(1R,2R-(+)-diaminocyclohexane)]^2+ [Complex 5b] | 0.3 ± 0.05
30 | [Pt(2-(2-pyridyl)benzimidazole)(1R,2R-(+)-diaminocyclohexane)]^2+ [Complex 6b] | 30 ± 2.1
31 | [Pt(2-pyrrolidin-2-yl pyridine)(1R,2R-(+)-diaminocyclohexane)]^2+ [Complex 4b] | 31 ± 1.2

tested on: Calf-thymus DNA (ctDNA); assay: Fluorescent intercalator displacement (FID) ctDNA binding assay with ethidium bromide; set-up: Ka (binding coefficient) / KF (binding constant for fluorescence) / Kq (bimolecular quenching constant) / KSV (Stern–Volmer quenching constant): unit not given here; settings: 75 µM ethidium bromide, 150 µM ctDNA, pH 7.0
Procedure: To achieve this, the fluorescent signal of a DNA intercalator, in this case, ethidium bromide (EtBr), is measured as increasing concentrations of PC are added. As the PC displaces the EtBr, the fluorescence of the mixture is diminished, and the DNA binding capacity of the complex can be calculated from the fluorescence measurement. Calf-thymus DNA (ctDNA) was used and saturated with EtBr. The change in fluorescence is monitored as the complex is titrated into this solution. Once the decrease in fluorescence plateaued, the titration was ended. […] The fluorescence was measured from 550-750 nm and excited at 480 nm. Importantly, the cuvette was inverted four times, and the solution was incubated for 3 min after the addition of […] to allow adequate time for the PCs to interact with the DNA before scanning. […] A plot of F0/F against [PC] using experimental values allowed the determination of Kq and KSV from the slope as per Equation (5). (5) […] where n is the number of ethidium ligands that are displaced per PC. It is important to note that this expression is a simplification of the true binding interaction, as it ignores the effect of EtBr on the binding equilibrium. […] A plot of Log10[(F0 - F)/F)] against Log10[PC] was used to determine KF and n from the intercept and slope, respectively.

Row | Substance | Binding Stoichiometry | KF (binding constant for fluorescence) | KSV (Stern–Volmer quenching constant) | Ka (binding coefficient) | Kq (bimolecular quenching constant) | n (molar equivalents of PC at the point of intersection) | ΔFsat (change in fluorescence at the point of binding)
32 | [Pt(2-(1H-Imidazol-2-yl)pyridine)(1R,2R-(+)-diaminocyclohexane)]^2+ [Complex 5b] | 0.78 | 3.66 × 10^3 | 2.54 × 10^3 | 3.15 × 10^4 | 0.41 × 10^3 | 0.95 | 165.9
33 | [Pt(2-(2-pyridyl)benzimidazole)(1R,2R-(+)-diaminocyclohexane)]^2+ [Complex 6b] | 0.94 | 2.84 × 10^3 | 2.07 × 10^3 | 7.43 × 10^4 | 0.30 × 10^3 | 0.67 | 113.0
34 | [Pt(2-pyrrolidin-2-yl pyridine)(1R,2R-(+)-diaminocyclohexane)]^2+ [Complex 4b] | 1.17 | 5.77 × 10^3 | 3.85 × 10^3 | 1.40 × 10^4 | 0.74 × 10^3 | 1.68 | 121.0
